In paper PMC7441570 (Chemical biology & drug design, 2019):

Columns and labels:
in vitro = conditions: human, Caco-2
HIV-1 RNase H = conditions: read-out: HIV-1 RNase H IC50; in vitro; ref Budihas et al., 2005; cited from earlier work
human RNase H = conditions: read-out: human RNase H IC50; ref Budihas et al., 2005; cited from earlier work
[1] = system: bacterial (Escherichia coli) RNase H; conditions: read-out: bacterial (Escherichia coli) RNase H IC50; ref Budihas et al., 2005; cited from earlier work

Row | Papp (in vitro) [×10⁻⁶ cm/s] | recovery (in vitro) [%] | Compound | IC50 (HIV-1 RNase H) [µM] | IC50 (human RNase H) [µM] | IC50 [1] [µM]
1 | 16.3 | > 93 | COCCc1ccc(OCC(O)CNC(C)C)cc1 (stereo not shown) [metoprolol] | – | – | –
2 | 0.11 | > 93 | CC(C)(C)NCC(O)COc1cccc2c1CC(O)C(O)C2 (stereo not shown) [nadolol] | – | – | –
3 | – | – | CC(C)c1ccc(O)c(=O)c(O)c1 [β-thujaplicinol] | ~0.2 | 5.7 | 50
